Experimental data: ChEMBL document CHEMBL2150995, “Identification of an Adamantyl Azaquinolone JNK Selective Inhibitor” (ACS Med Chem Lett, 2012)
Converted amounts (≈) assume the structure as drawn. The source made the active and inactive calls. No cut-off for these calls is given here.

Tests used:
[1] = Solubility of the compound in acetonitrile/water at pH 6.5 by lyophilization solubility assay; assay type: physicochemical
[2] = target: T1, Mitogen-activated protein kinase 8 (Homo sapiens, UniProt P45983); experiment: Inhibition of JNK1 after 30 mins by TR-FRET assay
T1 sequence (P45983 whole entry): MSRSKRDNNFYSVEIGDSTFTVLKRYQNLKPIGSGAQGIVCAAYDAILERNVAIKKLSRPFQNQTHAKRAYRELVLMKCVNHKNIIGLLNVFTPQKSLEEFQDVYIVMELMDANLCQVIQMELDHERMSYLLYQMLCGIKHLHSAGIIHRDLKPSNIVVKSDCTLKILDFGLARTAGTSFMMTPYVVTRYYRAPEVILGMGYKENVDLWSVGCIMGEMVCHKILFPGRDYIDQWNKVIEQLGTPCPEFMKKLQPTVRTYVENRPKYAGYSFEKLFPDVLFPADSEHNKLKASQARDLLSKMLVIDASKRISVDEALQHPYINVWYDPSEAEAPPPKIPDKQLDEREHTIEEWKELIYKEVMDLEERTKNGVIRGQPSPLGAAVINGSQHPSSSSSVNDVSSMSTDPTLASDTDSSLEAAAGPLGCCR

[3] = target: T1, Mitogen-activated protein kinase 8; experiment: Inhibition of JNK1-mediated c-jun phosphorylation in TNF-alpha stimulated human HK-2 cells after 30 mins by TR-FRET assay; assay type: cell-based
[4] = Clearance in mouse liver microsomes; assay type: ADME, Microsome
[5] = Clearance in mouse hepatocytes; assay type: ADME, cell-based, Liver, Hepatocyte
[6] = Cmax in C57 mouse at 30 mg/kg, po; assay type: ADME, organism-based; design: dose 30 mg/kg, route oral; conditions: in vivo
[7] = Plasma concentration in C57 mouse at 30 mg/kg, po measured at 8 hrs; assay type: ADME, organism-based; design: dose 30 mg/kg, route oral
[8] = AUC in C57 mouse at 30 mg/kg, po; assay type: ADME, organism-based; design: dose 30 mg/kg, route oral; conditions: plasma
[9] = Drug uptake in C57 mouse liver at 30 mg/kg, po measured at 8 hrs; assay type: ADME, organism-based; design: dose 30 mg/kg, route oral; conditions: read-out: Drug uptake
[10] = Mean residence time in C57 mouse at 30 mg/kg, po; assay type: ADME, organism-based; design: dose 30 mg/kg, route oral; conditions: in vivo
[11] = Drug uptake in C57 mouse kidney at 30 mg/kg, po measured at 8 hrs; assay type: ADME, organism-based; design: dose 30 mg/kg, route oral; conditions: read-out: Drug uptake
[12] = Tmax in C57 mouse at 30 mg/kg, po; assay type: ADME, organism-based; design: dose 30 mg/kg, route oral; conditions: in vivo
[13] = Half life in rat at 5 mg/kg, iv administered as DMSO formulation; assay type: ADME, organism-based; design: dose 5 mg/kg, route intravenous; conditions: in vivo
[14] = Cmax in rat at 75 mg/kg, po administered as MBP formulation; assay type: ADME, organism-based; design: dose 75 mg/kg, route oral; conditions: in vivo
[15] = Cmax in rat at 30 mg/kg, po administered as DMSO formulation; assay type: ADME, organism-based; design: dose 30 mg/kg, route oral; conditions: in vivo
[16] = Clearance in C57 mouse at 5 mg/kg, iv administered as DMSO formulation; assay type: ADME, organism-based; design: dose 5 mg/kg, route intravenous; conditions: in vivo
[17] = Mean residence time in C57 mouse at 5 mg/kg, iv administered as DMSO formulation; assay type: ADME, organism-based; design: dose 5 mg/kg, route intravenous; conditions: in vivo
[18] = AUC in C57 mouse at 75 mg/kg, po administered as MBP formulation; assay type: ADME, organism-based; design: dose 75 mg/kg, route oral; conditions: plasma
[19] = Extrapolated AUC in rat at 5 mg/kg, iv administered as DMSO formulation; assay type: ADME, organism-based; design: dose 5 mg/kg, route intravenous; conditions: in vivo
[20] = Cmax in C57 mouse at 75 mg/kg, po administered as MBP formulation; assay type: ADME, organism-based; design: dose 75 mg/kg, route oral; conditions: in vivo
Rattus norvegicus [21] = experiment: In vivo inhibition of JNK-mediated c-jun phosphorylation in Sprague-Dawley rat assessed as phosphorylated c-jun level in kidney at 75 mg/kg, po administered as single dose in MBP formulation 7 hrs prior TNF-alpha challenge measured 1 hr post challenge by Western blot method relative to untreated control; assay type: functional
[22] = AUC (0 to 24 hrs) in C57 mouse at 5 mg/kg, iv; assay type: ADME, organism-based; design: time < 24 hr, dose 5 mg/kg, route intravenous; conditions: plasma
[23] = Mean residence time in rat at 5 mg/kg, iv administered as DMSO formulation; assay type: ADME, organism-based; design: dose 5 mg/kg, route intravenous; conditions: in vivo
[24] = AUC in rat at 75 mg/kg, po administered as MBP formulation; assay type: ADME, organism-based; design: dose 75 mg/kg, route oral; conditions: plasma
[25] = Tmax in C57 mouse at 30 mg/kg, po administered as DMSO formulation; assay type: ADME, organism-based; design: dose 30 mg/kg, route oral; conditions: in vivo
[26] = Half life in rat at 75 mg/kg, po administered as MBP formulation; assay type: ADME, organism-based; design: dose 75 mg/kg, route oral; conditions: in vivo
[27] = AUC in C57 mouse at 30 mg/kg, po administered as DMSO formulation; assay type: ADME, organism-based; design: dose 30 mg/kg, route oral; conditions: plasma
[28] = Volume of distribution in C57 mouse at 5 mg/kg, iv administered as DMSO formulation; assay type: ADME, organism-based; design: dose 5 mg/kg, route intravenous; conditions: in vivo
[29] = Volume of distribution in rat at 5 mg/kg, iv administered as DMSO formulation; assay type: ADME, organism-based; design: dose 5 mg/kg, route intravenous; conditions: in vivo
[30] = Tmax in rat at 30 mg/kg, po administered as DMSO formulation; assay type: ADME, organism-based; design: dose 30 mg/kg, route oral; conditions: in vivo
[31] = Clearance in C57 mouse at 5 mg/kg, iv; assay type: ADME, organism-based; design: dose 5 mg/kg, route intravenous; conditions: in vivo
Rattus norvegicus [32] = experiment: In vivo inhibition of JNK-mediated c-jun phosphorylation in Sprague-Dawley rat kidney at 75 mg/kg, po tid administered in MBP formulation 23 hrs prior TNF-alpha challenge measured 1 hr post challenge by Western blot method; assay type: functional, organism-based; design: dose 75 mg/kg
[33] = Half life in C57 mouse at 75 mg/kg, po administered as MBP formulation; assay type: ADME, organism-based; design: dose 75 mg/kg, route oral; conditions: in vivo
[34] = Half life in rat at 30 mg/kg, po administered as DMSO formulation; assay type: ADME, organism-based; design: dose 30 mg/kg, route oral; conditions: in vivo
Rattus norvegicus [35] = experiment: In vivo inhibition of JNK-mediated c-jun phosphorylation in Sprague-Dawley rat kidney at 75 mg/kg, po bid administered in MBP formulation 23 hrs prior TNF-alpha challenge measured 1 hr post challenge by Western blot method; assay type: functional, organism-based; design: dose 75 mg/kg
[36] = Cmax in C57 mouse at 30 mg/kg, po administered as DMSO formulation; assay type: ADME, organism-based; design: dose 30 mg/kg, route oral; conditions: in vivo
[37] = Solubility of the compound in MeOH solvate by lyophilization solubility assay; assay type: physicochemical
[38] = Volume of distribution at steady state in C57 mouse at 5 mg/kg, iv; assay type: ADME, organism-based; design: dose 5 mg/kg, route intravenous; conditions: in vivo, read-out: Vdss
[39] = Half life in C57 mouse at 5 mg/kg, iv administered as DMSO formulation; assay type: ADME, organism-based; design: dose 5 mg/kg, route intravenous; conditions: in vivo
[40] = Clearance in rat at 5 mg/kg, iv administered as DMSO formulation; assay type: ADME, organism-based; design: dose 5 mg/kg, route intravenous; conditions: in vivo
[41] = Tmax in C57 mouse at 75 mg/kg, po administered as MBP formulation; assay type: ADME, organism-based; design: dose 75 mg/kg, route oral; conditions: in vivo
[42] = AUC in rat at 30 mg/kg, po administered as DMSO formulation; assay type: ADME, organism-based; design: dose 30 mg/kg, route oral; conditions: plasma
[43] = Tmax in rat at 75 mg/kg, po administered as MBP formulation; assay type: ADME, organism-based; design: dose 75 mg/kg, route oral; conditions: in vivo
[44] = Extrapolated AUC in C57 mouse at 5 mg/kg, iv administered as DMSO formulation; assay type: ADME, organism-based; design: dose 5 mg/kg, route intravenous; conditions: in vivo

COC(=O)c1c(Cc2ccc(C(=O)N[C@H]3[C@@H]4C[C@@H]5C[C@H]3C[C@@](O)(C5)C4)cc2)c(=O)c2cccnc2n1-c1ccccc1
solubility [1]: 25 µg/mL (≈ 44.4 µM) | IC50 [2]: 47 nM | EC50 [3]: 8500 nM | CLhep predicted [4]: 81 mL/min/kg

COC(=O)c1c(Cc2ccc(C(=O)NC(C)(C)CO)cc2)c(=O)c2cccnc2n1-c1ccccc1
solubility [1]: 103 µg/mL (≈ 212 µM) | IC50 [2]: 45 nM | EC50 [3]: 9000 nM | CLhep predicted [5]: 52.9 mL/min/kg | Cmax [6]: 3840 ng/mL | concentration at 8 h [7]: 380 nM | AUC [8]: 7010 ng·h/mL | concentration at 8 h [9]: 2490 nM | MRT [10]: 2.03 h | CLhep predicted [4]: 58 mL/min/kg | concentration at 8 h [11]: 620 nM | Tmax [12]: 0.25 h

COC(=O)c1c(Cc2ccc(C(=O)N[C@@H]3[C@@H]4C[C@@H]5C[C@H]3C[C@@](O)(C5)C4)cc2)c(=O)c2cccnc2n1-c1ccccc1
solubility [1]: 14 µg/mL (≈ 24.8 µM) | half-life [13]: 2.4 h | Cmax [14]: 30100 ng/mL | IC50 [2]: 12 nM | Cmax [15]: 8030 ng/mL | clearance [16]: 8.4 mL/min/kg | MRT [17]: 0.6 h | EC50 [3]: 4100 nM | CLhep predicted [5]: 10.9 mL/min/kg | AUC [18]: 49200 ng·h/mL | AUC [19]: 16300 ng·h/mL | Cmax [20]: 18100 ng/mL | inhibition in vivo at 75 mg/kg (Rattus norvegicus [21]): 52% | AUC(0-t) at 24 h [22]: 9890 ng·h/mL | MRT [23]: 1.8 h | Cmax [6]: 13600 ng/mL | concentration at 8 h [7]: 560 nM | AUC [24]: 252000 ng·h/mL | Tmax [25]: 0.25 h | AUC [8]: 22400 ng·h/mL | half-life [26]: 2 h | AUC [27]: 22400 ng·h/mL | Vd [28]: 0.3 L/kg | concentration at 8 h [9]: 2960 nM | Vd [29]: 0.61 L/kg | Tmax [30]: 4 h | clearance [31]: 8.4 mL/min/kg | MRT [10]: 2.38 h | inhibition (Rattus norvegicus [32]): Active | half-life [33]: 1.62 h | half-life [34]: 2.4 h | inhibition (Rattus norvegicus [35]): Active | Cmax [36]: 13600 ng/mL | solubility [37]: 14 µg/mL (≈ 24.8 µM) | Vd [38]: 0.3 L/kg | CLhep predicted [4]: 59 mL/min/kg | half-life [39]: 0.6 h | clearance [40]: 6.4 mL/min/kg | concentration at 8 h [11]: 860 nM | Tmax [41]: 1 h | Tmax [12]: 0.25 h | AUC [42]: 48300 ng·h/mL | Tmax [43]: 4 h | AUC [44]: 9890 ng·h/mL

COC(=O)c1c(Cc2ccc(C(=O)N[C@H]3CC[C@H](O)CC3)cc2)c(=O)c2cccnc2n1-c1ccccc1
concentration at 8 h [7]: 810 nM | concentration at 8 h [9]: 5570 nM | MRT [10]: 3.45 h | Vd [38]: 0.73 L/kg | concentration at 8 h [11]: 1890 nM | Tmax [12]: 0.25 h

COC(=O)c1c(Cc2ccc(C(=O)NC3(CO)CC3)cc2)c(=O)c2cccnc2n1-c1ccccc1
solubility [1]: 138 µg/mL (≈ 285 µM) | IC50 [2]: 45 nM | EC50 [3]: 21000 nM | CLhep predicted [5]: 33.2 mL/min/kg | Cmax [6]: 4370 ng/mL | concentration at 8 h [7]: 380 nM | AUC [8]: 7480 ng·h/mL | concentration at 8 h [9]: 4490 nM | MRT [10]: 1.73 h | CLhep predicted [4]: 45 mL/min/kg | concentration at 8 h [11]: 860 nM | Tmax [12]: 0.25 h
